{"source": "patent US20050070468A1", "about": "“Use of fk506 and analogues for treating allergic diseases” (SUCAMPO AG, priority 2001, published 2005)", "tested_on": "Patients with allergic conjunctivitis", "assay": "Antigen instillation into the eye of patients with allergic conjunctivitis; itchiness of the eye scored in 9 levels, improvement rate versus base line", "type": "in vivo, human", "settings": "for improvement (%) of group with pre-administration: once a day for one week, antigen given 16 hr after last instillation; for improvement (%) of group with pre-administration / improvement (%) of group without pre-administration: itchiness 3 min later, proportion of patients with at least 1 point lower itchiness than base line; for improvement (%) of group without pre-administration: single instillation, antigen given 8 hr after instillation", "experimental": "Patients with allergic conjunctivitis (3 groups, 30 patients per group) were instilled with an antigen into the eye. Three minutes later, itchiness of the eye was evaluated in 9 levels (0, 0.5, 1, 1.5, 2, 2.5, 3, 3.5, 4), and the average value (base line group) of itchiness was determined. A specific antigen was determined for each patient. […] At least one week was allowed to lapse from the test of Method 1, and FK506 eye drop (suspension) [0.03%, 0.06% or 0.1%] was instilled into the eye of the patients. At 8 hr after the instillation of the eye drop, the antigen was given. Three minutes later, itchiness of the eye was evaluated in the same manner as in Method 1, and the average value (without pre-administration) of itchiness was determined. […] At least one week was allowed to lapse from the test of Method 2, and FK506 eye drop was instilled into the eye of the patients once a day for one week. At 16 hr after the last instillation of the eye drop, the antigen was given. Three minutes later, itchiness of the eye was evaluated in the same manner as in Method 1, and the average value (with pre-administration) of itchiness was determined.", "data": [{"smiles": "C=CC[C@@H]1/C=C(\\C)C[C@H](C)C[C@H](OC)[C@H]2O[C@@](O)(C(=O)C(=O)N3CCCC[C@H]3C(=O)O[C@H](/C(C)=C/[C@@H]3CC[C@@H](O)[C@H](OC)C3)[C@H](C)[C@@H](O)CC1=O)[C@H](C)C[C@@H]2OC", "note": "[FK506, 17-allyl-1,14-dihydroxy-12-[2-(4-hydroxy-3-methoxycyclohexyl)-1-methylvinyl]-23,25-dimethoxy-13,19,21,27-tetramethyl-11,28-dioxa-4-azatricyclo-[22.3.1.0^4,9]octacos-18-ene-2,3,10,16-tetraone]", "values": [{"measurement": "improvement rate of the group with pre-administration after 16 hr compared with the group without pre-administration after 8 hr", "setting": "0.1% concentration groups", "value": "markedly higher"}, {"measurement": "improvement (%) of group with pre-administration", "setting": "FK506 eye drop 0.03%", "value": 61.54, "unit": "%"}, {"measurement": "improvement (%) of group with pre-administration", "setting": "FK506 eye drop 0.06%", "value": 65.52, "unit": "%"}, {"measurement": "improvement (%) of group with pre-administration", "setting": "FK506 eye drop 0.1%", "value": 72.41, "unit": "%"}, {"measurement": "improvement (%) of group without pre-administration", "setting": "FK506 eye drop (suspension) 0.03%", "value": 25.93, "unit": "%"}, {"measurement": "improvement (%) of group without pre-administration", "setting": "FK506 eye drop (suspension) 0.06%", "value": 40.00, "unit": "%"}, {"measurement": "improvement (%) of group without pre-administration", "setting": "FK506 eye drop (suspension) 0.1%", "value": 56.67, "unit": "%"}, {"measurement": "improvement effect on the itchiness by setting a leading period for pre-administration", "setting": "with versus without pre-administration, all concentrations", "value": "strikingly enhanced"}]}]}
